Measurements taken from patent publication US6420413B2, “Heterocycloalkylbenzocyclobutane and heteroarylbenzocyclobutane compounds” (Les Laboratories Servier, priority 2000, dated 2002).

How the values were obtained:
[1] = tested on: spontaneous marble-burying behaviour of mice; assay: Marble-burying test in mice; type: in vivo; conditions: male NMRI mice, 30 minutes' free exploration, s.c.
Description: This test enables evaluation of the capacity of pharmacological agents to inhibit the spontaneous marble-burying behaviour of mice, the inhibition being predictive of antidepressant and/or anti-impulsive action. Male mice of the NMRI strain (Iffa-Credo, l'Arbresle, France) weighing from 20 to 25 g on the day of the experiment are placed individually in Macrolon® boxes (30×18×19 cm) containing 5 cm of sawdust and covered with a perforated plexiglass plate. Twenty-four “tiger's eye” glass marbles are evenly distributed on the sawdust at the periphery of the box. At the end of 30 minutes' free exploration, the animals are removed from the box and the number of buried marbles is counted.

[2] = tested on: level of serotonin, noradrenalin and dopamine in cingulate frontal cortex; assay: Microdialysis experiment in the rat; type: in vivo; conditions: rat frontal cortex dialysate, 10 mg/kg subcutaneously
Method: Rats are anaesthetised with pentobarbital (60 mg/kg i.p.). They are placed in a Kopf stereotactic device and the cannula guide is implanted in the cingulate frontal cortex in accordance with the coordinates described in the Paxinos and Watson atlas (1982) as follows: AP=+2.2; L=±0.6; DV=−0.2. The rats are placed in separate cages and are not used in dialysis until 5 days later. […] The probe is perfused at a flow rate of 1 μl/mn with a solution of 147.2 mM NaCl, 4 mM KCl and 2.3 mM CaCl2 adjusted to pH 7.3 with a phosphate buffer (0.1 M). Two hours after implantation, samples are collected every 20 minutes for 4 hours. Three baseline samples are taken before administration of the products to be tested. The rats are left in their individual cages for the whole of the experiment. When the experiment is finished, the rats are decapitated and the brain is removed and frozen in isopentane. Sections of a thickness of 100 μm are cut and stained with cresyl violet, which allows verification of the location of the probes.
The simultaneous quantification of dopamine, norepinephrine and serotonin is carried out as follows: 20 μl dialysis samples are each diluted with 20 μl of mobile phase (NaH2PO4: 75 mM, EDTA: 20 μM, sodium 1-decanesulphonate: 1 mM, methanol: 17.5%, triethylamine: 0.01%, pH: 5.70) and 33 μl samples are analysed by HPLC using a reverse phase column thermostatically maintained at 45° C. and quantified by means of a coulometric detector. The potential of the first electrode of the detector is set at −90 mV (reduction) and that of the second at +280 mV (oxidation). The mobile phase is injected at a flow rate of 2 ml/mn using a pump. The sensitivity limits for dopamine, norepinephrine and serotonin are 0.55 fmol per sample. All the products of the invention are injected subcutaneously in a volume of 1.0 ml/kg. The products are dissolved in distilled water to which a few drops of lactic acid have been added if necessary.

**Q.** How did the “Marble-burying in mice, ID50 (inhibitory dose50)” value [1] turn out when `CN(C)CC1(C2(O)CCCCC2)Cc2cc3occc3cc21` (centres unmarked) [Example 5, 1-{5-[(Dimethylamino)methyl]-5,6-dihydrocyclobuta[f][1]benzofuran-5-yl}cyclohexanol] was run?
**A.** 0.6 mg/kg s.c.

**Q.** And the “increase of the level of dopamine (maximum % of the effect compared with the baseline level defined as 0%)” value [2]?
**A.** 400±50%

**Q.** What about the “increase of the level of noradrenalin (maximum % of the effect compared with the baseline level defined as 0%)” value [2] of the same compound?
**A.** 500±13%

**Q.** What about the “increase of the level of serotonin (maximum % of the effect compared with the baseline level defined as 0%)” value [2] of the same compound?
**A.** 250±15%

**Q.** With `CNCCC(Oc1ccc(C(F)(F)F)cc1)c1ccccc1` (centres unmarked) [Fluoxetine, fluoxetine, reference compound] as the compound, how does the “Marble-burying in mice, ID50 (inhibitory dose50)” value [1] read?
**A.** 8.03 mg/kg s.c.
